Patent US11020358B2, “Method for the anti-senescence of and/or rejuvenating stem cells” (GWO XI STEM CELL APPLIED TECHNOLOGY CO., LTD., priority 2014, dated 2021)

How the values were obtained:
hBMMSCs = experiment: SA-β-gal activity assay in hBMMSCs; format: cell-based, human
Experimental: Three portions of equal volume of the above culture medium containing the sub-cultured hBMMSCs were provided. The first and second portions were handled by adding thereinto H2O2 at a final concentration of 100 μM, reacting for 2 hours to induce senescence of the hBMMSCs, replacing the culture medium with a fresh culture medium, adding thereinto TC at final concentrations of 0 and 6 μM respectively, and reacting for 6 hours to obtain “H2O2 group (i.e., treated with H2O2 for 2 hours, but not treated with TC)” and “H2O2+TC6 group (i.e., treated with H2O2 for 2 hours and then treated with 6 μM of TC for 6 hours) hBMMSCs. The third portion without any treatment was referred to as “untreated group” hBMMSCs.
The ADSCs in each sample of the group obtained from Example 1 (1) were washed with PBS twice, fixed with 3% formaldehyde and washed with PBS once. […]
The staining solution was removed. […] The cells were observed and photographed under a microscope with 10-fold magnification, and the percentage of SA-β-gal activity-positive cells was calculated. […]

ADSCs = experiment: Analysis of proliferation rate (Ki67 staining); format: cell-based, human
Experimental: Four portions of equal volume of the above culture medium containing the sub-cultured ADSCs were separately handled by adding thereinto H2O2 (purchased from Sigma-Aldrich) at a final concentration of 100 μM and reacting for 2 hours to induce senescence of the ADSCs, replacing the culture medium with a fresh culture medium, adding thereinto TC (trans-cinnamaldehyde, purchased from Sigma-Aldrich) at a final concentration of 0, 2, 4 or 6 μM and reacting for 6 hours, so as to obtain “H2O2 group (i.e., treated with H2O2 for 2 hours, but not treated with TC),” “H2O2+TC2 group (i.e., treated with H2O2 for 2 hours and then treated with 2 μM of TC for 6 hours),” “H2O2+TC4 group (i.e., treated with H2O2 for 2 hours and then treated with 4 μM of TC for 6 hours),” and “H2O2+TC6 group (i.e., treated with H2O2 for 2 hours and then treated with 6 μM of TC for 6 hours)” ADSCs. Samples of the “untreated group,” “H2O2 group,” and “H2O2+TC6 group” ADSCs obtained from Example 1 (1) were washed with phosphate buffered saline (PBS) twice, fixed with 3.7% formaldehyde, and blocked with 10% FBS (diluted in PBS). Then, the cells of each sample were washed with PBS once, and reacted with a Ki67 antibody (purchased from Novus biological) at 4° C. overnight. […]

SIRT1 gene [1] = experiment: Quantitative RT-PCR of SIRT1 gene in WJSCs; format: cell-based
Experimental: Three portions of equal volume of the above culture medium containing the sub-cultured WJSCs were provided. The first and second portions were handled by adding thereinto H2O2 at a final concentration of 100 μM, reacting for 2 hours to induce senescence of the WJSCs, replacing the culture medium with a fresh culture medium, adding thereinto TC at final concentrations of 0 and 6 μM, respectively, and reacting for 6 hours to obtain “H2O2 group (i.e., treated with H2O2 for 2 hours, but not treated with TC)” and “H2O2+TC6 group (i.e., treated with H2O2 for 2 hours and then treated with 6 μM of TC for 6 hours) WJSCs. The third portion without any treatment was referred to as “untreated group” WJSCs. […]
(§1) Each of the cDNA of ADSCs of different groups from Experiment (3-1) was handled as follows. […] The mixture was then placed in a real-time quantitative PCR machine (ABI prism 7700 sequence detection system) to perform a reaction for quantifying the gene expression levels. […]
(§2) The steps as shown in Experiment (3-2) were repeated, but the cDNA was substituted with the cDNA of the BMMSCs or WJSCs from Experiment (3-1) to conduct quantitative RT-PCR.

SIRT1 gene [2] = experiment: Quantitative RT-PCR of SIRT1 gene in hBMMSCs; format: cell-based, human
Experimental: Three portions of equal volume of the above culture medium containing the sub-cultured hBMMSCs were provided. The first and second portions were handled by adding thereinto H2O2 at a final concentration of 100 μM, reacting for 2 hours to induce senescence of the hBMMSCs, replacing the culture medium with a fresh culture medium, adding thereinto TC at final concentrations of 0 and 6 μM respectively, and reacting for 6 hours to obtain “H2O2 group (i.e., treated with H2O2 for 2 hours, but not treated with TC)” and “H2O2+TC6 group (i.e., treated with H2O2 for 2 hours and then treated with 6 μM of TC for 6 hours) hBMMSCs. The third portion without any treatment was referred to as “untreated group” hBMMSCs. […]
as §1, §2

[3] = H2O2+TC6 group compared to H2O2 group
[4] = H2O2 group compared to untreated group

O=C/C=C/c1ccccc1 [TC, trans-cinnamaldehyde]
number of the SA-β-gal activity-positive hBMMSCs (hBMMSCs; H2O2+TC6 group (6 μM TC 6 h after H2O2) compared to H2O2 group): significantly reduced | number of the Ki67-positive cells (ADSCs; H2O2+TC6 group ADSCs (6 μM TC 6 h after H2O2)): increased to be similar to that in “untreated group” | expression level of SIRT1 gene in WJSCs (SIRT1 gene [1]; [3]): significantly increased | expression level of SIRT1 gene in hBMMSCs (SIRT1 gene [2]; [3]): significantly increased

OO [H2O2, reference compound]
number of the SA-β-gal activity-positive hBMMSCs (hBMMSCs; H2O2 group (100 μM 2 h) compared to untreated group): significantly increased | number of the Ki67-positive cells (ADSCs; H2O2 group ADSCs (100 μM 2 h), compared to untreated group): significantly reduced | expression level of SIRT1 gene in WJSCs (SIRT1 gene [1]; [4]): significantly reduced | expression level of SIRT1 gene in hBMMSCs (SIRT1 gene [2]; [4]): significantly reduced
